What follows are compounds tested against T1, RORc ligand binding domain (Homo sapiens, UniProt P51449) (assay: In Vitro RORc Ligand Binding Assay). Settings: RORc IC50, radioligand 25-[3H]hydroxycholesterol 6 nM; 0.6 ug/mL RORc receptor; 3 h at 25° C.
T1 sequence (P51449 269-508 limits assumed): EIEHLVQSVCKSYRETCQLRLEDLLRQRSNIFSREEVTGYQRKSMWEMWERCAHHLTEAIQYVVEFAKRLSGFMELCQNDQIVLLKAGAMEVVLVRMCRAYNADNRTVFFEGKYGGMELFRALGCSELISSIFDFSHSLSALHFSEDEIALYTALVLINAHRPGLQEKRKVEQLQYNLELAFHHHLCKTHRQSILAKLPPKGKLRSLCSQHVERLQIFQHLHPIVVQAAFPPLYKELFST

Row | IC50 | Compound
1 | 16.2 nM | CC1(C)[C@H]2CC[C@]1(c1cncc(-c3nc(CCO)n[nH]3)n1)c1nnc(-c3c(F)cccc3F)cc12 [Example 306, 2-(5-(6-((5R,8S)-3-(2,6-difluorophenyl)-9,9-dimethyl-5,6,7,8-tetrahydro-5,8-methanocinnolin-8-yl)pyrazin-2-yl)-1H-1,2,4-triazol-3-yl)ethanol]
2 | 13.5 nM | CC(C)(O)C1CN(c2nccc([C@@]34CC[C@@H](c5cc(-c6c(F)cccc6F)nnc53)C4(C)C)n2)C1 [Example 307]
3 | 104 nM | CC1(C)[C@H]2CC[C@]1(c1cncc(-c3nc([C@@H](O)C(F)(F)F)n[nH]3)n1)c1nnc(-c3c(F)cccc3F)cc12 [Example 308, (R)-1-(5-(6-((5R,8S)-3-(2,6-difluorophenyl)-9,9-dimethyl-5,6,7,8-tetrahydro-5,8-methanocinnolin-8-yl)pyrazin-2-yl)-1H-1,2,4-triazol-3-yl)-2,2,2-trifluoroethanol]
4 | 88.4 nM | CC1(C)[C@H]2CC[C@]1(c1cncc(-c3nc([C@H](O)C(F)(F)F)n[nH]3)n1)c1nnc(-c3c(F)cccc3F)cc12 [Example 309, (S)-1-(5-(6-((5R,8S)-3-(2,6-difluorophenyl)-9,9-dimethyl-5,6,7,8-tetrahydro-5,8-methanocinnolin-8-yl)pyrazin-2-yl)-1H-1,2,4-triazol-3-yl)-2,2,2-trifluoroethanol]
5 | 73.5 nM | CC1(C)[C@H]2CC[C@]1(c1cccc(-c3nc(CCO)n[nH]3)n1)c1nnc(-c3c(F)cccc3F)cc12 [Example 310, 2-(5-(6-((5R,8S)-3-(2,6-difluorophenyl)-9,9-dimethyl-5,6,7,8-tetrahydro-5,8-methanocinnolin-8-yl)pyridin-2-yl)-1H-1,2,4-triazol-3-yl)ethanol]
6 | 71.1 nM | C[C@@H](O)Cc1n[nH]c(-c2cccc([C@@]34CC[C@@H](c5cc(-c6c(F)cccc6F)nnc53)C4(C)C)n2)n1 [Example 311, (R)-1-(5-(6-((5R,8S)-3-(2,6-difluorophenyl)-9,9-dimethyl-5,6,7,8-tetrahydro-5,8-methanocinnolin-8-yl)pyridin-2-yl)-1H-1,2,4-triazol-3-yl)propan-2-ol]
7 | 62.7 nM | C[C@H](O)Cc1n[nH]c(-c2cccc([C@@]34CC[C@@H](c5cc(-c6c(F)cccc6F)nnc53)C4(C)C)n2)n1 [Example 312, (S)-1-(5-(6-((5R,8S)-3-(2,6-difluorophenyl)-9,9-dimethyl-5,6,7,8-tetrahydro-5,8-methanocinnolin-8-yl)pyridin-2-yl)-1H-1,2,4-triazol-3-yl)propan-2-ol]
8 | 1.6 nM | CC1(C)[C@H]2CC[C@]1(c1cccc(-c3cc(CO)n[nH]3)n1)c1nnc(-c3c(F)cccc3F)cc12 [Example 313, (5-(6-((5R,8S)-3-(2,6-difluorophenyl)-9,9-dimethyl-5,6,7,8-tetrahydro-5,8-methanocinnolin-8-yl)pyridin-2-yl)-1H-pyrazol-3-yl)methanol]
9 | 1.5 nM | CC(C)(O)c1noc(-c2cccc([C@@]34CC[C@@H](c5cc(-c6c(F)cccc6F)nnc53)C4(C)C)n2)n1 [Example 314, 2-(5-(6-((5R,8S)-3-(2,6-difluorophenyl)-9,9-dimethyl-5,6,7,8-tetrahydro-5,8-methanocinnolin-8-yl)pyridin-2-yl)-1,2,4-oxadiazol-3-yl)propan-2-ol]
10 | 94.1 nM | CC1(C)[C@H]2CC[C@]1(c1cncc(OCC(N)=O)n1)c1nnc(-c3c(F)cccc3F)cc12 [Example 315, 2-((6-((5R,8S)-3-(2,6-difluorophenyl)-9,9-dimethyl-5,6,7,8-tetrahydro-5,8-methanocinnolin-8-yl)pyrazin-2-yl)oxy)acetamide]
11 | 36.4 nM | CC(C)(O)COc1cncc([C@@]23CC[C@@H](c4cc(-c5c(F)cccc5F)nnc42)C3(C)C)n1 [Example 316, 1-((6-((5R,8S)-3-(2,6-difluorophenyl)-9,9-dimethyl-5,6,7,8-tetrahydro-5,8-methanocinnolin-8-yl)pyrazin-2-yl)oxy)-2-methylpropan-2-ol]
12 | 9.2 nM | CC1(C)[C@H]2CC[C@]1(c1cccc(-c3nc(C4(O)CC4)n[nH]3)n1)c1nnc(-c3c(F)cccc3F)cc12 [Example 317, 1-(5-(6-((5R,8S)-3-(2,6-difluorophenyl)-9,9-dimethyl-5,6,7,8-tetrahydro-5,8-methanocinnolin-8-yl)pyridin-2-yl)-1H-1,2,4-triazol-3-yl)cyclopropanol]
13 | 10.8 nM | CC[C@@H](O)c1n[nH]c(-c2cccc([C@@]34CC[C@@H](c5cc(-c6c(F)cccc6F)nnc53)C4(C)C)n2)n1 [Example 318, (R)-1-(5-(6-((5R,8S)-3-(2,6-difluorophenyl)-9,9-dimethyl-5,6,7,8-tetrahydro-5,8-methanocinnolin-8-yl)pyridin-2-yl)-1H-1,2,4-triazol-3-yl)propan-1-ol]
14 | 9 nM | CC1(C)[C@H]2CC[C@]1(c1cccc(-c3nc(C4(O)COC4)n[nH]3)n1)c1nnc(-c3c(F)cccc3F)cc12 [Example 320, 3-(5-(6-((5R,8S)-3-(2,6-difluorophenyl)-9,9-dimethyl-5,6,7,8-tetrahydro-5,8-methanocinnolin-8-yl)pyridin-2-yl)-1H-1,2,4-triazol-3-yl)oxetan-3-ol]
15 | 12.7 nM | CC1(C)[C@H]2CC[C@]1(c1cccc(-c3nc(CS(C)(=O)=O)n[nH]3)n1)c1nnc(-c3c(F)cccc3F)cc12 [Example 321]
16 | 11.5 nM | CC[C@H](O)c1n[nH]c(-c2cccc([C@@]34CC[C@@H](c5cc(-c6c(F)cccc6F)nnc53)C4(C)C)n2)n1 [Example 322, (S)-1-(5-(6-((5R,8S)-3-(2,6-difluorophenyl)-9,9-dimethyl-5,6,7,8-tetrahydro-5,8-methanocinnolin-8-yl)pyridin-2-yl)-1H-1,2,4-triazol-3-yl)propan-1-ol]
17 | 11.2 nM | CC1(C)[C@H]2CC[C@]1(c1ccnc(-n3cnc(CC(N)=O)n3)n1)c1nnc(-c3c(F)cccc3F)cc12 [Example 323]

Row | IC50 | Compound
18 | 9.5 nM | CC(C)(O)Cc1ccn(-c2nccc([C@@]34CC[C@@H](c5cc(-c6c(F)cccc6F)nnc53)C4(C)C)n2)n1 [Example 324]
19 | 6.7 nM | CC1(C)[C@H]2CC[C@]1(c1cncc(-c3nc(C(N)=O)co3)n1)c1nnc(-c3c(F)cccc3F)cc12 [Example 325, 2-(6-((5R,8S)-3-(2,6-difluorophenyl)-9,9-dimethyl-5,6,7,8-tetrahydro-5,8-methanocinnolin-8-yl)pyrazin-2-yl)oxazole-4-carboxamide]
20 | 10.1 nM | CC1(C)[C@H]2CC[C@]1(c1cncc(-c3nc(C(=O)NCCO)co3)n1)c1nnc(-c3c(F)cccc3F)cc12 [Example 326, 2-(6-((5R,8S)-3-(2,6-difluorophenyl)-9,9-dimethyl-5,6,7,8-tetrahydro-5,8-methanocinnolin-8-yl)pyrazin-2-yl)-N-(2-hydroxyethyl)oxazole-4-carboxamide]
21 | 2.2 nM | CC1(C)[C@H]2CC[C@]1(c1ccnc(N3CCOCC3)n1)c1nnc(-c3c(F)cccc3F)cc12 [Example 328]
22 | 2.8 nM | CC1(C)[C@H]2CC[C@]1(c1ccnc(N3CCCC3)n1)c1nnc(-c3c(F)cccc3F)cc12 [Example 329]
23 | 4.6 nM | CC1(C)[C@H]2CC[C@]1(c1ccnc(N3CC[C@H](O)C3)n1)c1nnc(-c3c(F)cccc3F)cc12 [Example 330]
24 | 4.8 nM | CC1(C)[C@H]2CC[C@]1(c1ccnc(OCCO)n1)c1nnc(-c3c(F)cccc3F)cc12 [Example 333]
25 | 5 nM | CC1(C)[C@H]2CC[C@]1(c1ccnc(N3CCO[C@@H](CO)C3)n1)c1nnc(-c3c(F)cccc3F)cc12 [Example 334]
26 | 6.2 nM | CC1(C)[C@H]2CC[C@]1(c1ccnc(N3CCO[C@H](CO)C3)n1)c1nnc(-c3c(F)cccc3F)cc12 [Example 335]
27 | 13 nM | CC1(C)[C@H]2CC[C@]1(c1ccnc(N3CC4(CCO4)C3)n1)c1nnc(-c3c(F)cccc3F)cc12 [Example 336]
28 | 6 nM | CC1(C)[C@H]2CC[C@]1(c1ccnc(N3CCNC(=O)C3)n1)c1nnc(-c3c(F)cccc3F)cc12 [Example 337]
29 | 3.2 nM | CC1(C)[C@H]2CC[C@]1(c1ccnc(N3CCN(S(C)(=O)=O)CC3)n1)c1nnc(-c3c(F)cccc3F)cc12 [Example 338]
30 | 5.6 nM | CC1(C)[C@H]2CC[C@]1(c1cccc(-c3nc([C@@H](O)C(F)(F)F)n[nH]3)n1)c1nnc(-c3c(F)cccc3F)cc12 [Example 339, (R)-1-(5-(6-((5R,8S)-3-(2,6-difluorophenyl)-9,9-dimethyl-5,6,7,8-tetrahydro-5,8-methanocinnolin-8-yl)pyridin-2-yl)-1H-1,2,4-triazol-3-yl)-2,2,2-trifluoroethanol]
31 | 3.6 nM | CC1(C)[C@H]2CC[C@]1(c1cccc(-c3nc([C@H](O)C(F)(F)F)n[nH]3)n1)c1nnc(-c3c(F)cccc3F)cc12 [Example 340, (S)-1-(5-(6-((5R,8S)-3-(2,6-difluorophenyl)-9,9-dimethyl-5,6,7,8-tetrahydro-5,8-methanocinnolin-8-yl)pyridin-2-yl)-1H-1,2,4-triazol-3-yl)-2,2,2-trifluoroethanol]
32 | 3.4 nM | CC1(C)[C@H]2CC[C@]1(c1cncc(-c3nc(C#N)co3)n1)c1nnc(-c3c(F)cccc3F)cc12 [Example 341, 2-(6-((5R,8S)-3-(2,6-difluorophenyl)-9,9-dimethyl-5,6,7,8-tetrahydro-5,8-methanocinnolin-8-yl)pyrazin-2-yl)oxazole-4-carbonitrile]
33 | 11.7 nM | CC(C)(O)c1cnc(-c2cncc([C@@]34CC[C@@H](c5cc(-c6c(F)cccc6F)nnc53)C4(C)C)n2)o1 [Example 342, 2-(2-(6-((5R,8S)-3-(2,6-difluorophenyl)-9,9-dimethyl-5,6,7,8-tetrahydro-5,8-methanocinnolin-8-yl)pyrazin-2-yl)oxazol-5-yl)propan-2-ol]
